PubChem BioAssay AID1963850 (Molecular Pharmacology Branch, DTP, NCI, 2024)

System: 192522-019-R-J2-PDC complex tumor spheroid viability
Assay: Anticancer human tumor 192522-019-R-J2-PDC patient-derived colon adenocarcinoma cell line growth inhibition [POLQ]
Settings: for IC50: curve of first compound; for viability, T/C: stronger effect = lower value
How it was run: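 Patient-derived tumour cells were co-cultured with HUVEC and mesenchymal stem cells as multicellular spheroids at 37 °C. They were treated with POLQ inhibitors (novobiocin, ART-558, RP6685) alone or combined with other agents. Top concentrations were at or near clinical Cmax (otherwise 10 microM; SN-38 at 1 microM), decreasing in half-log steps.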

[1] = second compound 0.0316 µM, first compound 0.0316 µM
[2] = second compound 0.0316 µM, first compound 0.1 µM
[3] = second compound 0.0316 µM, first compound 0.316 µM
[4] = second compound 0.0316 µM, first compound 1 µM
[5] = second compound 0.0316 µM, first compound 3.16 µM
[6] = second compound 0.0316 µM, first compound 10 µM
[7] = second compound 0.1 µM, first compound 0.0316 µM
[8] = second compound 0.1 µM, first compound 0.1 µM
[9] = second compound 0.1 µM, first compound 0.316 µM
[10] = second compound 0.1 µM, first compound 1 µM
[11] = second compound 0.1 µM, first compound 3.16 µM
[12] = second compound 0.1 µM, first compound 10 µM
[13] = second compound 0.316 µM, first compound 0.0316 µM
[14] = second compound 0.316 µM, first compound 0.1 µM
[15] = second compound 0.316 µM, first compound 0.316 µM
[16] = second compound 0.316 µM, first compound 1 µM
[17] = second compound 0.316 µM, first compound 3.16 µM
[18] = second compound 0.316 µM, first compound 10 µM
[19] = second compound 1 µM, first compound 0.0316 µM
[20] = second compound 1 µM, first compound 0.1 µM
[21] = second compound 1 µM, first compound 0.316 µM
[22] = second compound 1 µM, first compound 1 µM
[23] = second compound 1 µM, first compound 3.16 µM
[24] = second compound 1 µM, first compound 10 µM
[25] = second compound 3.16 µM, first compound 0.0316 µM
[26] = second compound 3.16 µM, first compound 0.1 µM
[27] = second compound 3.16 µM, first compound 0.316 µM
[28] = second compound 3.16 µM, first compound 1 µM
[29] = second compound 3.16 µM, first compound 3.16 µM
[30] = second compound 3.16 µM, first compound 10 µM
[31] = second compound 10 µM, first compound 0.0316 µM
[32] = second compound 10 µM, first compound 0.1 µM
[33] = second compound 10 µM, first compound 0.316 µM
[34] = second compound 10 µM, first compound 1 µM
[35] = second compound 10 µM, first compound 3.16 µM
[36] = second compound 10 µM, first compound 10 µM
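Further: spheroids exposed to drugs for seven days before reading.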
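Wherever viability, T/C is given: 100% = DMSO vehicle control viability in luminescence.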

C#Cc1c(F)ccc2cc(O)cc(-c3ncc4c(N5CC6CCC(C5)N6)nc(OCC56CCCN5CC(F)C6)nc4c3F)c12 (centres undefined) + Nc1ccc(C#CCN(C(=O)Cc2ncc(C(F)(F)F)cc2C(F)(F)F)c2ccc(F)cc2)nn1
IC50 (second compound 0.0316 µM): > 10 µM
IC50 (second compound 0.1 µM): > 10 µM
IC50 (second compound 0.316 µM): > 10 µM
IC50 (second compound 1 µM): > 10 µM
IC50 (second compound 3.16 µM): > 10 µM
IC50 (second compound 10 µM): > 10 µM
viability, T/C [1]: 93.8%
viability, T/C [2]: 88.8%
viability, T/C [3]: 78.2%
viability, T/C [4]: 80.9%
viability, T/C [5]: 67.9%
viability, T/C [6]: 68.5%
viability, T/C [7]: 92.8%
viability, T/C [8]: 89.3%
viability, T/C [9]: 72.7%
viability, T/C [10]: 80.8%
viability, T/C [11]: 74.5%
viability, T/C [12]: 73.3%
viability, T/C [13]: 88.8%
viability, T/C [14]: 82.3%
viability, T/C [15]: 75.3%
viability, T/C [16]: 69.7%
viability, T/C [17]: 68.2%
viability, T/C [18]: 76.2%
viability, T/C [19]: 89.5%
viability, T/C [20]: 76.2%
viability, T/C [21]: 78.7%
viability, T/C [22]: 77.8%
viability, T/C [23]: 78%
viability, T/C [24]: 70.7%
viability, T/C [25]: 97.9%
viability, T/C [26]: 81.7%
viability, T/C [27]: 71.7%
viability, T/C [28]: 73.2%
viability, T/C [29]: 78.4%
viability, T/C [30]: 70.4%
viability, T/C [31]: 91.9%
viability, T/C [32]: 79.5%
viability, T/C [33]: 80.2%
viability, T/C [34]: 77.2%
viability, T/C [35]: 73.7%
viability, T/C [36]: 79.8%

C=CC(=O)N1CCN(c2nc(=O)n(-c3c(C)ccnc3C(C)C)c3nc(-c4c(O)cccc4F)c(F)cc23)C(C)C1 (centres undefined) + Nc1ccc(C#CCN(C(=O)Cc2ncc(C(F)(F)F)cc2C(F)(F)F)c2ccc(F)cc2)nn1
IC50 (second compound 0.0316 µM): > 10 µM
IC50 (second compound 0.1 µM): > 10 µM
IC50 (second compound 0.316 µM): > 10 µM
IC50 (second compound 1 µM): > 10 µM
IC50 (second compound 3.16 µM): > 10 µM
IC50 (second compound 10 µM): > 10 µM
viability, T/C [1]: 104%
viability, T/C [2]: 99.7%
viability, T/C [3]: 96.7%
viability, T/C [4]: 111%
viability, T/C [5]: 116%
viability, T/C [6]: 97%
viability, T/C [7]: 105%
viability, T/C [8]: 97.2%
viability, T/C [9]: 110%
viability, T/C [10]: 112%
viability, T/C [11]: 102%
viability, T/C [12]: 98.3%
viability, T/C [13]: 108%
viability, T/C [14]: 104%
viability, T/C [15]: 103%
viability, T/C [16]: 105%
viability, T/C [17]: 116%
viability, T/C [18]: 100%
viability, T/C [19]: 109%
viability, T/C [20]: 102%
viability, T/C [21]: 103%
viability, T/C [22]: 108%
viability, T/C [23]: 119%
viability, T/C [24]: 99.3%
viability, T/C [25]: 102%
viability, T/C [26]: 98.8%
viability, T/C [27]: 103%
viability, T/C [28]: 108%
viability, T/C [29]: 115%
viability, T/C [30]: 106%
viability, T/C [31]: 104%
viability, T/C [32]: 111%
viability, T/C [33]: 102%
viability, T/C [34]: 108%
viability, T/C [35]: 107%
viability, T/C [36]: 104%
